According to patent US10597375B2, “Halogen-substituted heterocyclic compound” (UBE INDUSTRIES, LTD., priority 2012, dated 2020):

Key:
human LPA1 receptor = target: T1, human LPA1 receptor (Homo sapiens, UniProt Q92633); experiment: Binding test of GTPγS to LPA1 receptor; type: biochemical; details: membrane fraction of RH 7777 cells expressed with human LPA1 receptor; LPA 100 nM; read-out: IC50: concentration of the test compound which inhibits the binding of LPA1 receptor and [35S]GTPγS by 50%
T1 construct: purchased ChanTest A324; host or cells: RH 7777 cells (recombinant expression; membrane fraction)
Procedure: Binding test of GTPγS to LPA1 receptor
5 μg of the membrane fraction of RH 7777 cells expressed with human LPA1 receptor (A324, ChanTest) was suspended in a reaction buffer (20 mM HEPES, 100 mM NaCl, 10 mM MgCl2, 10 μM GDP, 5 μg saponin, 0.2% BSA, 0.1 nM [^35S]GTPγS (NEG030X, Perkin Elmer), pH 7.4), and the test compound dissolved in DMSO in various concentrations was added. After preincubation at 30° C. for 15 minutes, LPA (L7260, Sigma, the final concentration of 100 nM) was added, and the suspension was incubated at 30° C. for 30 minutes. The membrane fraction was collected onto a glass fiber filter (GF/B, Whatman) by using a cell harvester (M30, Brandel), and washed with a 10 mM phosphate buffer (pH 7.4). The radioactivity of the membrane fraction was measured using a liquid scintillation analyzer (2900TR, Packard) and the concentration of the test compound which inhibits the binding of LPA1 receptor and [^35S]GTPγS by 50%, (1050) was determined by non-linear regression analysis using EXSAS (version 7.6.0, Arm Systex).

[1] = tested on: A2058 human melanoma cells; experiment: Cell migration test (LPA-induced, Chemo-Tx); type: cell-based; details: LPA 100 nM, 3 hours, read-out: IC50: concentration of the test compound which inhibits the cell migration activity of LPA by 50%
Outline: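 A2058 cells, serum-starved 24 h, pretreated 15 min at 37° C with compound (0.5% DMSO final). Migration over 3 h at 37° C through fibronectin-coated filters toward 100 nM LPA (final). Migrated cells stained, absorbance at 570 nm; IC50 from non-linear regression.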

[2] = tested on: LPA-induced histamine release; experiment: LPA-induced histamine release test in mouse; type: in vivo; details: male CD1 mice; oral dose of 10 mg/kg; LPA 300 μg/mouse via tail vein 4 hours after administration; blood 2 minutes after LPA; read-out: efficacy rate (rate of individuals which showed the inhibition rate of 80% or more of plasma histamine)
Procedure: LPA-Induced Histamine Release Test in Mouse
LPA-induced histamine release test in mouse was carried out according to a method by Swaney et al. (The Journal of Pharmacology and Experimental Therapeutics, 336 (2011), pages 693-700). The test compound was suspended in 0.5% methylcellulose solution (133-14255, Wako), and orally administered to male CD1 mice (body weight: 30 to 40 g, supplied by Charles River Laboratories Japan) at a dose of 10 mL/kg. 4 hours after administration, LPA (857130P, Avanti) dissolved in a 0.1% BSA-containing PBS was administered via the tail vein (300 μg/mouse). Immediately, the mouse was anesthetized with isoflurane, and blood was collected via a vein 2 minutes after the administration of LPA. The blood was put into a test tube containing EDTA, and centrifuged at 4° C., 2,000×g, for 10 minutes to obtain the plasma.
The histamine concentration in the plasma was measured by EIA kit (62HTMPEB, Cisbio Bioassays).

T1 sequence (Q92633 whole entry): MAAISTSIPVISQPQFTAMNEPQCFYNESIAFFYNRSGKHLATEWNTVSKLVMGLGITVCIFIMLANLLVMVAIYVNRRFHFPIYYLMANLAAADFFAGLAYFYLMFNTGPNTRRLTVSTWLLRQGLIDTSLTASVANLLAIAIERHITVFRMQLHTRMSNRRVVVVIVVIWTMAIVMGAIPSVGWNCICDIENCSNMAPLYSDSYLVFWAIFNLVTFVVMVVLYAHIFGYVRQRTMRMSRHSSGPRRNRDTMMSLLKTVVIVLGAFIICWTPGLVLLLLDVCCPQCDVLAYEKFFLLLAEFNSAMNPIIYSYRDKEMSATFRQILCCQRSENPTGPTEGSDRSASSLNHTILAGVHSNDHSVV

Structure (SMILES)	IC50 (human LPA1 receptor) [nM]	IC50 [1] [nM]	responders at 10 mg/kg [2] [%]
C[C@@H](OC(=O)Nc1cc(F)sc1-c1ccc(-c2ccc(C3(C(=O)O)CC3)cc2)cc1)c1ccccc1 [I-100, (R)-1-[4′-(5-Fluoro-3-{[(1-phenylethoxy)carbonyl]amino}thiophen-2-yl)-[1,1′-biphenyl]-4-yl]cyclopropanecarboxylic acid]	≤ 200	≤ 200	≥ 50
C[C@@H](OC(=O)Nc1cc(F)sc1-c1ccc(-c2ccc(C3(C(=O)O)CC3)cc2)cc1)c1ccccc1F [I-104, (R)-1-{4′-[5-Fluoro-3-({[1-(2-fluorophenyl)ethoxy]carbonyl}amino)thiophen-2-yl]-[1,1′-biphenyl]-4-yl}cyclopropanecarboxylic acid]	≤ 200	≤ 200	≥ 50
C[C@@H](OC(=O)Nc1cc(F)sc1-c1ccc(-c2ccc(C3(C(=O)O)CC3)cc2)cc1)c1ccc(F)cc1 [I-112, (R)-1-{4′-[5-Fluoro-3-({[1-(4-fluorophenyl)ethoxy]carbonyl}amino)thiophen-2-yl]-[1,1′-biphenyl]-4-yl}cyclopropanecarboxylic acid]	≤ 200	≤ 200	≥ 50
C[C@@H](OC(=O)Nc1cc(F)sc1-c1ccc(-c2ccc(C3(C(=O)O)CC3)cc2)cc1)c1ccccc1Cl [I-122, (R)-1-{4′-[3-({[1-(2-Chlorophenyl)ethoxy]carbonyl}amino)-5-fluorothiophen-2-yl]-[1,1′-biphenyl]-4-yl}cyclopropanecarboxylic acid]	≤ 200	≤ 200	≥ 50
C[C@@H](OC(=O)Nc1cc(F)sc1-c1ccc(-c2ccc(C3(C(=O)O)CC3)cc2)cc1)c1ccc(Cl)cc1 [I-126, (R)-1-{4′-[3-({[1-(4-Chlorophenyl)ethoxy]carbonyl}amino)-5-fluorothiophen-2-yl]-[1,1′-biphenyl]-4-yl}cyclopropanecarboxylic acid]	≤ 200	≤ 200	≥ 50
C[C@@H](OC(=O)Nc1cc(F)sc1-c1ccc(-c2ccc(C3(C(=O)O)CC3)cc2)cc1)c1ccc(F)cc1Cl [I-152, (R)-1-{4′-[3-({[1-(2-Chloro-4-fluorophenyl)ethoxy]carbonyl}amino)-5-fluorothiophen-2-yl]-[1,1′-biphenyl]-4-yl}cyclopropanecarboxylic acid]	≤ 200	≤ 200	≥ 50

Continued, in another order:

IC50 (human LPA1 receptor) [nM]	IC50 [1] [nM]	Structure (SMILES)	responders at 10 mg/kg [2] [%]
≤ 200	≤ 200	C[C@@H](OC(=O)Nc1cc(Cl)sc1-c1ccc(-c2ccc(C3(C(=O)O)CC3)cc2)cc1)c1ccccc1Cl [I-52, (R)-1-{4′-[5-Chloro-3-({[1-(2-chlorophenyl)ethoxy]carbonyl}amino)thiophen-2-yl]-[1,1′-biphenyl]-4-yl}cyclopropanecarboxylic acid]	≥ 50
≤ 200	≤ 200	C[C@@H](OC(=O)Nc1cc(Cl)sc1-c1ccc(-c2ccc(C3(C(=O)O)CC3)cc2)cc1)c1ccc(Cl)cc1 [I-56, (R)-1-{4′-[5-Chloro-3-({[1-(4-chlorophenyl)ethoxy]carbonyl}amino)thiophen-2-yl]-[1,1′-biphenyl]-4-yl}cyclopropanecarboxylic acid]	≥ 50
≤ 200	≤ 200	Cc1ccccc1[C@@H](C)OC(=O)Nc1cc(Cl)sc1-c1ccc(-c2ccc(C3(C(=O)O)CC3)cc2)cc1 [I-60, (R)-1-{4′-[5-Chloro-3-({[1-(o-tolyl)ethoxy]carbonyl}amino)thiophen-2-yl]-[1,1′-biphenyl]-4-yl}cyclopropanecarboxylic acid]	≥ 50
